From patent publication US9567318B2, “Substituted pyrimidine compounds and uses thereof” (Memorial Sloan-Kettering Cancer Center, priority 2009, dated 2017)
Entries after “also recorded” stand apart in the source; their conditions may differ.

Test system: HER2, Raf-1, Akt, Hsp70 in SKBr3 cells
Experiment: Western blotting of Hsp90 onco-client proteins and Hsp70 in SKBr3 cells
Format: cell-based, human
Conditions: SKBr3 cells, 24 h
Description: FIG. 3. Testing strategy for the discovery of YK5. a, b) SKBr3 cells were treated for 24 h with the indicated concentrations of inhibitors and cells were lysed for western blot (WB) analysis. β-actin was used as loading control. The data are consistent with those obtained from multiple repeat experiments (n≧3). c) The ability of the indicated inhibitors to compete with GM-Cy3B for Hsp90 binding in SKBr3 cell extracts was examined by fluorescence polarization. Values recorded in wells with added inhibitor were normalized to values read in control wells and plotted against the concentration of tested inhibitor. Drugs were assayed in triplicate. All compounds were used as DMSO stocks. Points, mean; bars, s.d. d) Growth inhibition: SKBr3 cells were incubated in triplicate with increasing concentrations of compound and growth over 72 h was assessed. Y-axis values below 0% represent cell death of the starting population. HER2 degradation was analyzed as in panel a), and gels were quantified by densitometry. Recorded values were normalized to control (vehicle only treated cells) and data graphed against YK5 concentration. Error bars represent the s.d. of the mean (n=3).
FIG. 8. […] Points, mean; bars, s.d. Yaxis values below 0% represent cell death of the starting population. c) Streptavidin beads (50 μl) were incubated with the indicated concentrations of YK55, YK56 or D-biotin to immobilize the corresponding compounds on beads. Beads (50 μl) were probed with SKBr3 cell extracts (500 μg), and the precipitated Hsp70 analyzed by western blot and quantified by […]. Results from three independent experiments were graphed to determine the relative binding affinity of YKs. Points, mean; bars, s.d. d) Structure of representative YKs. YK55 and YK56 are the biotinylated derivatives of YK54 and YK57, respectively.
FIG. 9. […] Cells were treated for 24 h with the indicated concentrations of YK149 and YK5. Cells were lysed and proteins analyzed by western blotting. b) Examples of the compounds of the present subject matter inhibit the activity of the oncogenic STAT3 in the triple-negative breast cancer cells MDA-MB-468. Cells were treated for the indicated times with compounds or vehicle and proteins analyzed by western blot. (c) Examples of the compounds of the present subject matter dose-dependently induce apoptosis in the acute myeloid leukemia cells MOLM13. Cells were treated for 24 h with the indicated concentration of compounds and the increase in caspase3,7 activity was measured and compared to only vehicle (DMSO) treated cells. Caspase-3,7 activity was a measure of compound potency in cleaving the caspase substrate Z-DEVD-R110 and releasing rhodamine. The percentage increase in apoptotic cells was calculated by comparing the fluorescence readings obtained from compounds with those obtained from vehicle (DMSO)-treated cells.
Western Blotting. Cells were grown to 60-70% confluence and treated with inhibitor or DMSO vehicle for the indicated times. Protein lysates were prepared in 50 mM Tris pH 7.4, 150 mM NaCl and 1% NP-40 lysis buffer. Protein concentrations were measured using the BCA kit (Pierce) according to the manufacturer's instructions. […]

For `C=CC(=O)Nc1cc(N)nc(Sc2c(OC)nc(N3CCN(C)CC3)nc2OC)n1` [YK5, N-(6-amino-2-(4,6-dimethoxy-2-(4-methylpiperazin-1-yl)pyrimidin-5-ylthio)pyrimidin-4-yl)acrylamide], which “feed-back induction of Hsp70 (heat shock response)” value is on record?
Its value is “undetected”.

What about the “degradation of Hsp90 onco-client proteins (HER2, Raf-1, Akt)” value (western blot) of the same molecule?
Its value is “dose-dependently reduce the steady-state levels of HER2 and Raf-1; also recorded: induced the degradation of HER2, Raf-1 and Akt kinases”.
